These results are taken from patent US9822130B2, “Triazolo-pyrazinyl derivatives useful as soluble guanylate cyclase activators” (Merck Sharp & Dohme Corp., priority 2014, dated 2017).

In the experiment the target is T1, sGC α1/β1 heterodimer stably expressed in CHO-K1 cell line (CHO-K1/sGC) (Homo sapiens, UniProt Q02108+Q02153).
T1 construct: expressed in transfected cells
T1 sequence (Q02108 1-690): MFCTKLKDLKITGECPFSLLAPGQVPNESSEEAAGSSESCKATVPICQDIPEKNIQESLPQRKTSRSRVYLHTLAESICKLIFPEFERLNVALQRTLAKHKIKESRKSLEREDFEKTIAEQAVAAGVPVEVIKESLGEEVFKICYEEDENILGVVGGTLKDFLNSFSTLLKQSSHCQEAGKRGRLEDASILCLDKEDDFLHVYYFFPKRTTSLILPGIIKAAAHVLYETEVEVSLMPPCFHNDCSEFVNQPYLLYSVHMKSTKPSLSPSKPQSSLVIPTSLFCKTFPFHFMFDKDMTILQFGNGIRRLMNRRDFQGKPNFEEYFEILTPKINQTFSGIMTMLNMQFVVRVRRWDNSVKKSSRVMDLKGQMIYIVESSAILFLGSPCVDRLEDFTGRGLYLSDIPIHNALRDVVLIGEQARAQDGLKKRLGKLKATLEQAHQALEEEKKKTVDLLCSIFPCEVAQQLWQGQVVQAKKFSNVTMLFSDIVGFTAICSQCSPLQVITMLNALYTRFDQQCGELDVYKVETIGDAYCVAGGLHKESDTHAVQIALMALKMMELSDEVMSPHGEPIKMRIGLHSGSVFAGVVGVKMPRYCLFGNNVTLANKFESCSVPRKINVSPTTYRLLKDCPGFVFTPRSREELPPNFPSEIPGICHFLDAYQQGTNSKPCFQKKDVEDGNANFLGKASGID
T1 sequence (Q02153 1-619): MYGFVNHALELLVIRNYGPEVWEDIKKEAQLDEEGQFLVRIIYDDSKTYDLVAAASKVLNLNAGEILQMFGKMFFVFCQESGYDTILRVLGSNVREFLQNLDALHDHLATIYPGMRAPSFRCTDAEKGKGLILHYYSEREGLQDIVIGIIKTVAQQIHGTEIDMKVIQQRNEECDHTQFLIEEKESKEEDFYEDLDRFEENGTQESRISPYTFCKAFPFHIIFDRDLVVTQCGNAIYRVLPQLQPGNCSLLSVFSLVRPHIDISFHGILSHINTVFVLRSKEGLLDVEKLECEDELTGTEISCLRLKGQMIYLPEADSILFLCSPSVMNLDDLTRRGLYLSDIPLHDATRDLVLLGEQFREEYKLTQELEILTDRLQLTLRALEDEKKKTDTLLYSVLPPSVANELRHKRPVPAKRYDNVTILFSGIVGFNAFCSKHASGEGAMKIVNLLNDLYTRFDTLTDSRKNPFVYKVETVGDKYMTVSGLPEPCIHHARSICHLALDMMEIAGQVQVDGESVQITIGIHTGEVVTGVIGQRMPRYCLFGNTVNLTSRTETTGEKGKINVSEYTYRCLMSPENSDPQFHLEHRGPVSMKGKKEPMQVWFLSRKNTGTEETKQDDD
Description: Cell-based sGC Functional Assay (CASA Assay), cGMP generation. The following applies: CHO-K1/sGC cells, 1 hr at 37° C., cGMP by HTRF, 4P fit; presence or absence of 1 μM DETA-NO not given; read-out: IP (nM) (inflection point). An excerpt:
sGC is a heme-containing enzyme that converts GTP to secondary messenger cGMP. Increases in cGMP levels affect several physiological processes including vasorelaxation through multiple downstream pathways. […] Heme-dependent activators (HDAs) preferentially activate sGC containing a ferrous heme group. To determine the effect of sGC activators on enzyme activity, the CASA assay was developed to monitor the generation of cGMP in a cell line that stably expresses the heterodimeric sGC protein.
A CHO-K1 cell line stably expressing the sGC α1/β1 heterodimer was generated using a standard transfection protocol. CHO-K1 cells were transfected with plasmids pIREShyghsGCα1 and pIRESneo-hsGCβ1 simultaneously using FUGENE reagent. Clones that stably express both subunits were selected with hygromycin and neomycin for ˜2 weeks. Clone #7 was chosen for the assay and was designated CHO-K1/sGC. CHO-K1/sGC cells were maintained in F-K12 medium containing 10% heat-inactivated Fetal Bovine Serum (FBS), 100 μg/mL penicillin/streptomycin, 0.5 mg/mL hygromycin and 0.25 mg/mL G418. The cells were then cryopreserved in LN2. On the day of the assay, cells thawed and resuspended in EBSS Assay Buffer (Sigma, E3024) supplemented with 5 mM MgCl2, 10 mM HEPES (4-(2-hydroxyethyl)piperazine-1-ethanesulfonic acid) and 0.05% BSA (bovine serum albumin) (EAB) and cell density was then adjusted to 4×10^5/mL with EAB, IBMX (3-isobutyl-1-methylxanthin, 0.5 mM) was added to inhibit degradation of cGMP. Compounds were diluted from DMSO stock solutions and added to the assay at a final DMSO concentration of 2.5%. Cells were incubated with compounds in the presence and absence of 1 μM of Diethylenetriamine/nitric oxide adduct (DETA-NO; Sigma, 17018) for 1 hr at 37° C. At the end of the incubation period, the reaction was terminated and the cells were lysed with the detection reagents from Cisbio Kits. The level of intracellular cGMP was determined using an HTRF-based assay kit (CisBio, 62GM2PEC), which detects the displacement of a fluorescence labeled cGMP from its specific antibody. The cGMP produced by test compounds was directly compared to the maximum cGMP production (this value was set to equal 100% activation.) of the published sGC-HDA Compound A:
[drawing 300] (Example 1 in WO 2010/065275, published Jun. 10, 2010). The test compounds' activities were then expressed as a percentage of Compound A, the standard in every experiment. This percent activation was calculated either in the presence or absence of DETA-NO which was then plotted. IP and maximum fold induction was derived using ADA analysis software for 4P fit.
The compounds in the Examples of the instant invention had inflection points (IP) less than or equal to 10 μM and more particularly less than or equal to about 1 μM.

For `CC1(c2ccccc2)C(=O)Nc2nc(-c3cn4ncnc4c(CCC(F)(F)C(F)(F)F)n3)nc(O)c21` (stereo not shown) [Example 128B, 4-hydroxy-5-methyl-2-(8-(3,3,4,4,4-pentafluorobutyl)-[1,2,4]triazolo[1,5-a]pyrazin-6-yl)-5-phenyl-5H-pyrrolo[2,3-d]pyrimidin-6(7H)-one], the EC50 was 128 nM.
With `O=C1Nc2nc(-c3cn4ncnc4c(CCCC(F)(F)F)n3)nc(O)c2C1(c1ccc(F)cc1)C1CC1` (stereo not shown) [Example 139B, 5-cyclopropyl-5-(4-fluorophenyl)-4-hydroxy-2-(8-(4,4,4-trifluorobutyl)-[1,2,4]triazolo[1,5-a]pyrazin-6-yl)-5H-pyrrolo[2,3-d]pyrimidin-6(7H)-one], the EC50 amounted to 673 nM.
For `C[C@@]1(c2ccc(F)cc2)C(=O)Nc2nc(-c3cn4ncnc4c(CCC(F)(F)F)n3)nc(O)c21` [Example 151A, (S)-5-(4-fluorophenyl)-4-hydroxy-5-methyl-2-(8-(3,3,3-trifluoropropyl)-[1,2,4]triazolo[1,5-a]pyrazin-6-yl)-5,7-dihydro-6H-pyrrolo[2,3-d]pyrimidin-6-one], the EC50 stood at 1490 nM.
On to `CCCc1nc(-c2nc(O)c3c(n2)NC(=O)C3(C)c2ccc(Cl)cc2)cn2ncnc12` (stereo not shown) [Example 164A, 5-(4-chlorophenyl)-4-hydroxy-5-methyl-2-(8-propyl-[1,2,4]triazolo[1,5-a]pyrazin-6-yl)-5H-pyrrolo[2,3-d]pyrimidin-6(7H)-one], for which the EC50 amounted to 780 nM.
Turning to `C[C@@]1(c2ccc(F)cc2)C(=O)Nc2nc(-c3cn4ncnc4c(CCCC(F)(F)F)n3)nc(N)c21` [Example 23A, (S)-4-amino-5-(4-fluorophenyl)-5-mclhyl-2-(S-(4,4,4-trifluorobutyl)-[1,2,4]triazolo[1,5-a]pyrazin-6-yl)-5,7-dihydro-6H-pyrrolo[2,3-d]pyrimidin-6-one], the EC50 worked out at 29.6 nM.
In the case of `CC1(c2ccc(F)c(F)c2)C(=O)Nc2nc(-c3cn4ncnc4c(CCCC(F)(F)F)n3)nc(N)c21` (stereo not shown) [Example 38B, 4-amino-5-(3,4-difluorophenyl)-5-methyl-2-(8-(4,4,4-trifluorobutyl)-[1,2,4]triazolo[1,5-a]pyrazin-6-yl)-5H-pyrrolo[2,3-d]pyrimidin-6(7H)-one], the EC50 was 11 nM.
The value for `CC1(c2nnc(C3CC3)o2)C(=O)Nc2nc(-c3cn4ncnc4c(CCCC(F)(F)F)n3)nc(N)c21` (stereo not shown) [Example 99A, 4-amino-5-(5-cyclopropyl-1,3,4-oxadiazol-2-yl)-5-methyl-2-(8-(4,4,4-trifluorobutyl)-[1,2,4]triazolo[1,5-a]pyrazin-6-yl)-5H-pyrrolo[2,3-d]pyrimidin-6(7H)-one] was 47.5 nM.
The result for `CC1(c2ccc(Cl)cc2)C(=O)Nc2nc(-c3cn4ncnc4c(CCC(F)(F)C(F)(F)F)n3)nc(N)c21` (stereo not shown) [Example 10A, 4-amino-5-(4-chlorophenyl)-5-methyl-2-(8-(3,3,4,4,4-pentafluorobutyl)-[1,2,4]triazolo[1,5-a]pyrazin-6-yl)-5H-pyrrolo[2,3-d]pyrimidin-6(7H)-one] reads 15.8 nM; that for `Nc1nc(-c2cn3ncnc3c(CCC(F)(F)C(F)(F)F)n2)nc2c1C(c1cn(C3CC3)nn1)(C1CC1)C(=O)N2` (stereo not shown) [Example 96B, 4-amino-5-cyclopropyl-5-(1-cyclopropyl-1H-1,2,3-triazol-4-yl)-2-(8-(3,3,4,4,4-pentafluorobutyl)-[1,2,4]triazolo[1,5-a]pyrazin-6-yl)-5H-pyrrolo[2,3-d]pyrimidin-6(7H)-one], 134 nM.
`Nc1nc(-c2cn3ncnc3c(CCCC(F)(F)F)n2)nc2c1C(c1ccc(Cl)cc1)(C1CC1)C(=O)N2` (stereo not shown) [Example 31B, 4-amino-5-(4-chlorophenyl)-5-cyclopropyl-2-(8-(4,4,4-trifluorobutyl)-[1,2,4]triazolo[1,5-a]pyrazin-6-yl)-5H-pyrrolo[2,3-d]pyrimidin-6(7H)-one]: the EC50 came out at 13 nM.
